Experimental data taken from ChEMBL document CHEMBL5346971, “Discovery of the First Irreversible HDAC6 Isoform Selective Inhibitor with Potent Anti-Multiple Myeloma Activity” (J Med Chem, 2023).
Activity calls are given as the source filed them. No cut-off for these calls is given here.

Columns and labels:
Homo sapiens = organism: Homo sapiens; test: Selectivity index, ratio of IC50 for inhibition of C-terminal FLAG-tagged human full length recombinant HDAC2 (1 to 488 residues) expressed in Sf9 cells to IC50 for inhibition of N-terminal GST-tagged human full length recombinant HDAC6 (1 to 1215 residues) expressed in Sf9 cells
[1] = biological target: T1, Class 1 histone deacetylase (Homo sapiens) (UniProt Q13547+O15379+Q92769+Q9BY41); test: Irreversible inhibition of class 1 HDAC in human A549 cells assessed as acetyl histone H4 level at 0.4 uM incubated for 5 hrs followed by drug wash-out and measured immediately after drug wash-out by western blot analysis relative to control; assay type: cell-based
T1 sequence (O15379 whole entry, looked up): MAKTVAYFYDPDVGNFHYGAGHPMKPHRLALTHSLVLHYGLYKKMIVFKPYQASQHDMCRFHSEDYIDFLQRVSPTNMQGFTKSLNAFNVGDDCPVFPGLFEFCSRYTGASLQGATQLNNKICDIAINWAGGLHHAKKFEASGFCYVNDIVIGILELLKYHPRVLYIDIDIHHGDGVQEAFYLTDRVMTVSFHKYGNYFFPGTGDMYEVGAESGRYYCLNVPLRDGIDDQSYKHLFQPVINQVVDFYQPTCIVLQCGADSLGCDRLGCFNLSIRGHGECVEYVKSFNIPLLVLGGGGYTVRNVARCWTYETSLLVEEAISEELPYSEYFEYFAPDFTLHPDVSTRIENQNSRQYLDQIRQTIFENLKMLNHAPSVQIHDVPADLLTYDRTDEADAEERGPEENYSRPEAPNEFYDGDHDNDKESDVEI
T1 sequence (Q13547 whole entry, looked up): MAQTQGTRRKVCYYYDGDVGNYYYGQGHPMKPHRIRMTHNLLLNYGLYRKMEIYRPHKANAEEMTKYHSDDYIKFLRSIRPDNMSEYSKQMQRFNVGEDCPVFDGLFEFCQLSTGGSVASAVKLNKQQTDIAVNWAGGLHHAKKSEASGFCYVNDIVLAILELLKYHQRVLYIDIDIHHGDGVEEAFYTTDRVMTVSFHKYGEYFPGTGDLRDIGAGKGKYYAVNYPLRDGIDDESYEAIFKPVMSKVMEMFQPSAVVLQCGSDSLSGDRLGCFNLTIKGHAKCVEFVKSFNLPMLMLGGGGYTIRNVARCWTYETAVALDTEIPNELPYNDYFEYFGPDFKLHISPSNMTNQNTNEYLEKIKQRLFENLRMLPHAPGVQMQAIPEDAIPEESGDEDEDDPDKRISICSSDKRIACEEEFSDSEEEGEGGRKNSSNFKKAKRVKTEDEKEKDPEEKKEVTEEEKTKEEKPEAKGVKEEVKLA
T1 sequence (Q92769 whole entry, looked up): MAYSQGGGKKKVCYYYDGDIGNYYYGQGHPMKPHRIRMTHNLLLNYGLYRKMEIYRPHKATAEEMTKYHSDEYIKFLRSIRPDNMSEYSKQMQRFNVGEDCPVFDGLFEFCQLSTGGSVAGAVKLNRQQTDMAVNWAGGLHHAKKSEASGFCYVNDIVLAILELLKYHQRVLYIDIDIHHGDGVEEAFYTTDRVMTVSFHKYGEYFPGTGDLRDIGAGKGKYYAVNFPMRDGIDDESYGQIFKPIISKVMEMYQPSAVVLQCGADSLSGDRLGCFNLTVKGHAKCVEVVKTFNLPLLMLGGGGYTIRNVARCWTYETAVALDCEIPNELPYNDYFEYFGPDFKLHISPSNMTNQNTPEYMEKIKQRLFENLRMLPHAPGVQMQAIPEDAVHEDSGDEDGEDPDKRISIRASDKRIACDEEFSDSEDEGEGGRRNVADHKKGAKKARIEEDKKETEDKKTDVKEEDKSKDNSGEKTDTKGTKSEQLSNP
T1 sequence (Q9BY41 whole entry, looked up): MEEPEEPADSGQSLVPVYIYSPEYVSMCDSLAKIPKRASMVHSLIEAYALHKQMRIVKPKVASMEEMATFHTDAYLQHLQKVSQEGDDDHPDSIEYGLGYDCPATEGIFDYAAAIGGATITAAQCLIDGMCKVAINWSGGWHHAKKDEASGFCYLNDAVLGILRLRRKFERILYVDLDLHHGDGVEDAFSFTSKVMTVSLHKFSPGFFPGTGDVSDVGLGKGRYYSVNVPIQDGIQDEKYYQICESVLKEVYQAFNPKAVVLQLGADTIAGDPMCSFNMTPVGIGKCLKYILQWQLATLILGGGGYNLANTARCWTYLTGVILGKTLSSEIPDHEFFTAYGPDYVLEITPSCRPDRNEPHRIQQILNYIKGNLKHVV

[2] = biological target: T1, Class 1 histone deacetylase (Homo sapiens); test: Irreversible inhibition of class 1 HDAC in human A549 cells assessed as acetyl histone H3 level at 0.4 uM incubated for 5 hrs followed by drug wash-out for 24 hrs by western blot analysis relative to control; assay type: cell-based
[3] = biological target: T2, Protein deacetylase HDAC6 (Homo sapiens) (UniProt Q9UBN7); test: Irreversible inhibition of HDAC6 in human A549 cells assessed as acetyl alpha-tubulin level at 0.4 uM incubated for 5 hrs followed by drug wash-out for 1 hr by western blot analysis relative to control; assay type: cell-based
T2 sequence (whole entry): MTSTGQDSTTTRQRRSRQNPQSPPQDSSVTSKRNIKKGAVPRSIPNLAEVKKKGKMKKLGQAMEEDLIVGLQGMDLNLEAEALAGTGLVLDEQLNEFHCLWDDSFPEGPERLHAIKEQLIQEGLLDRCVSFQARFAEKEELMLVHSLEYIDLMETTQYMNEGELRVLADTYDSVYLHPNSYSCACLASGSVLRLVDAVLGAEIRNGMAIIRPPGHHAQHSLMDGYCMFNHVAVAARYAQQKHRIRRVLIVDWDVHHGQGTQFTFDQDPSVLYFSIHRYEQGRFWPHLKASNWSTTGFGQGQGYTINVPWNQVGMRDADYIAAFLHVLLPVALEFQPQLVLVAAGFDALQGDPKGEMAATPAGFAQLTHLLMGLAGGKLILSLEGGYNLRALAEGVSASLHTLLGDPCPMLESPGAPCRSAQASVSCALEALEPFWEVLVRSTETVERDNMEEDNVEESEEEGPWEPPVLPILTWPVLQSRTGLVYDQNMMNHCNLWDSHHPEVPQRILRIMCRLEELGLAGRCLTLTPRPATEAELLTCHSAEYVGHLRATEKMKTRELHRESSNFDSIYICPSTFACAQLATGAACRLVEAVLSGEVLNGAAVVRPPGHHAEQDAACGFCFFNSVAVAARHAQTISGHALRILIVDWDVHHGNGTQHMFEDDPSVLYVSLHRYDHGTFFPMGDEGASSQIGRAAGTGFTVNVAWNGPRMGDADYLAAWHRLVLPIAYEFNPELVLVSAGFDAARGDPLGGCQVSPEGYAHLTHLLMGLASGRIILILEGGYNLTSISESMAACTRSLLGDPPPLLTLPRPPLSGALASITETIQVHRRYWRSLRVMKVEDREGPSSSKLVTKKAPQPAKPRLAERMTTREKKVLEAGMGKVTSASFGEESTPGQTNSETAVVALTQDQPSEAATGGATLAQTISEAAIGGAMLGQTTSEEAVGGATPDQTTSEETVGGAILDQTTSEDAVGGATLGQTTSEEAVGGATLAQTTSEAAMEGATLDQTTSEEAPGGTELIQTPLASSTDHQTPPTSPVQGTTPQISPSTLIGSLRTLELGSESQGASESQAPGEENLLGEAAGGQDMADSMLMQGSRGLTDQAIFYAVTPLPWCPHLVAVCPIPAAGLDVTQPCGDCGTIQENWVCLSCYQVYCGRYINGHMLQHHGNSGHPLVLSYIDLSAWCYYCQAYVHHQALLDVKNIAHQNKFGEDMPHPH

Histone deacetylase 9 = Histone deacetylase 9 (Homo sapiens, UniProt Q9UKV0); test: Inhibition of C-terminal His-tagged human recombinant HDAC9 (604 to 1066 residues) expressed in baclovirus-infected Sf9 cells using Boc-Lys(trifluoroacety1)-AMC as substrate preincubated with enzyme for 1 hr followed by substrate addition and measured after 30 mins by fluorescence based analysis
Histone deacetylase 9, sequence (Q9UKV0 whole entry, the tested form may be a part): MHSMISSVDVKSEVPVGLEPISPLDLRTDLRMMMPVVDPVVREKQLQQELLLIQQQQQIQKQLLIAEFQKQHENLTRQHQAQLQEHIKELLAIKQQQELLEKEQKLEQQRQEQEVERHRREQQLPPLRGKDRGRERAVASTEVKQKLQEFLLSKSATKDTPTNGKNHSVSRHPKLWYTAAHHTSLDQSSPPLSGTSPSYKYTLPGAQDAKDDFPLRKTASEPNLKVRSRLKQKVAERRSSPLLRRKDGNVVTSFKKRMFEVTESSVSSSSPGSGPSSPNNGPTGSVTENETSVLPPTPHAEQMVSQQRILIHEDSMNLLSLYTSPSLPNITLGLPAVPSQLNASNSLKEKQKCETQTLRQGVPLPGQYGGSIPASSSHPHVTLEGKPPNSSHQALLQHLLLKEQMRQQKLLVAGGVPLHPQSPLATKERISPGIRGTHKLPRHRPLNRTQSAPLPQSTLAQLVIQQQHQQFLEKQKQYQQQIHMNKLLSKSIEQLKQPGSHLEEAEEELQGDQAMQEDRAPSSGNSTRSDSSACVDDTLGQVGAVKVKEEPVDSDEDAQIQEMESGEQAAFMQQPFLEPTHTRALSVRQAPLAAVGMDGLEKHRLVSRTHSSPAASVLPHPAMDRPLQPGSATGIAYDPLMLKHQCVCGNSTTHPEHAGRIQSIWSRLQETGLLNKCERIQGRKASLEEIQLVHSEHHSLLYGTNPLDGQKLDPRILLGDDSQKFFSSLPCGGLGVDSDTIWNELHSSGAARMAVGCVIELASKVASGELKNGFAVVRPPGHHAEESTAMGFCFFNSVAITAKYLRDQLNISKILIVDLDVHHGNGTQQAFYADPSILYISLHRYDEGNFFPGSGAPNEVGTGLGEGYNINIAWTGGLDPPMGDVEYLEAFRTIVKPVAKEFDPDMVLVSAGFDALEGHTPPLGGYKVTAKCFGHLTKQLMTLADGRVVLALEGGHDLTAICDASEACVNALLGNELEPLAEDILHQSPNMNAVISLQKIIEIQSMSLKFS

RPMI-8226 [4] = test: Induction of apoptosis in human RPMI-8226 cells assessed as proportion of early apoptotic cells at 0.1 uM incubated for 24 hrs by AnnexinV-FITC/PI staining based flow cytometry (reference value: 10.63%); assay type: functional, cell-based
RPMI-8226 [5] = test: Induction of apoptosis in human RPMI-8226 cells assessed as proportion of late apoptotic cells at 0.5 uM incubated for 24 hrs by AnnexinV-FITC/PI staining based flow cytometry (reference value: 4.18%); assay type: functional, cell-based
RPMI-8226 [6] = test: Induction of cell cycle arrest in human RPMI-8226 cells assessed as proportion of cells at G1 phase at 0.1 uM incubated for 24 hrs by PI staining based flow cytometry (reference value: 33.5%); assay type: functional
[7] = Half-life in human liver microsomes in presence of NADPH by LC-MS/MS analysis; assay type: ADME, Microsome

- fold change (FC) [1]: 0.7
- fold change (FC) [2]: 1.2
- fold change (FC) [3]: 5.3
- IC50 (Histone deacetylase 9): > 40 µM
- half-life [7]: 5.4 min
Compound: O=C(NO)c1ccc(COc2no[n+]([O-])c2S(=O)(=O)c2ccccc2)cc1
- Ratio IC50 (Homo sapiens): 45.5
- Activity (RPMI-8226 [4]): Active
- Activity (RPMI-8226 [5]): Active
- Activity (RPMI-8226 [6]): 28.8%
